Reference: patent US8357385B2, “Combination therapy for the treatment of bacterial infections” (Interface Biologics Inc., priority 2008, dated 2013)
Values after ≈ are worked out from the molar mass of the structure shown. Read-outs that look alike come from different tables or passages of the source. Peptide text beside a SMILES is read from it.

Key:
Format in all cases: cell-based
S. Aureus = assay: microbe, parasite or virus in culture
Experimental: (§1) Broth dilution method was used to measure quantitatively the in vitro activity of an antimicrobial agent against a given bacterial isolate. First, a series of tubes/wells were prepared with a broth medium to which various concentrations of the antimicrobial agents were added. The tubes/wells were then inoculated with standardized suspension of the test organism. After overnight incubation at 35±2° C., the tests were examined and the minimum inhibitory concentration (MIC) was determined. The procedures were performed under aseptic conditions. Stock culture: Stock cultures were maintained in Mueller Hinton Broth containing 15% Glycerol and stored at −80° C. Stock cultures were sub-cultured on to Mueller Hinton Agar (MHA), and incubated overnight at 37° C. […] Washing of cells: the cells were washed with PBS (pH 7.1) by centrifuging at 3000 rpm for 10 minutes. A cell suspension in Mueller Hinton broth (MHB) having a turbidity equivalent to a 0.5 McFarland turbidity standard was prepared using a Beckman Coulter DU 800 Spectrophotometer measuring at 600 nm wavelength. This is a suspension containing approximately […] of microbe. The suspension was diluted in MH broth so that, after dilution, the tube contained approximately 5×10^6 CFU/mL, and after inoculation, each well contains approximately 5×10^5 CFU/mL. Broth dilution procedure: small volumes of MH broth dispensed in sterile, polystyrene, non-pyrogenic tissue culture plates, 96 well, flat bottoms with low evaporation lid were prepared (each well contained 0.1 mL of MH broth) followed by the final two fold dilutions of antimicrobial agent dispensed volumetrically into the broth. […] Inoculation: each well of a microdilution plate was inoculated. The purity of the inoculum suspension was checked by sub-culturing an aliquot on to MH agar plate. Colony counts on inoculum suspensions were performed periodically, to ensure that the final inoculum concentration was approximately […]. […] To prevent drying, each plate was sealed with parafilm and the plates were kept in a moist chamber while incubating at 37° C. overnight, in a shaking incubator. Determining MIC endpoints: The MIC is defined as the lowest concentration of an antimicrobial that will inhibit growth of a microorganism. The in plate dilution method the endpoint is detected by the unaided eye.

P. Auregenosa = assay: organism not typed
Experimental: as §1

E. coli = assay: microbe, parasite or virus in culture
Experimental: as §1

C. Albicans = assay: Broth dilution MIC against C. Albicans; settings: Candida albicans, Monotherapy, overnight incubation
Experimental: Broth dilution method was used to measure quantitatively the in vitro activity of an antimicrobial agent against a given bacterial isolate. First, a series of tubes/wells were prepared with a broth medium to which various concentrations of the antimicrobial agents were added. The tubes/wells were then inoculated with standardized suspension of the test organism. After overnight incubation at 35±2° C., the tests were examined and the minimum inhibitory concentration (MIC) was determined. The procedures were performed under aseptic conditions. Stock culture: Stock cultures were maintained in Mueller Hinton Broth containing 15% Glycerol and stored at −80° C. Stock cultures were sub-cultured on to Mueller Hinton Agar (MHA), and incubated overnight at 37° C. […] Washing of cells: the cells were washed with PBS (pH 7.1) by centrifuging at 3000 rpm for 10 minutes. A cell suspension in Mueller Hinton broth (MHB) having a turbidity equivalent to a 0.5 McFarland turbidity standard was prepared using a Beckman Coulter DU 800 Spectrophotometer measuring at 600 nm wavelength. This is a suspension containing approximately […] of microbe. The suspension was diluted in MH broth so that, after dilution, the tube contained approximately 5×10^6 CFU/mL, and after inoculation, each well contains approximately 5×10^5 CFU/mL. Broth dilution procedure: small volumes of MH broth dispensed in sterile, polystyrene, non-pyrogenic tissue culture plates, 96 well, flat bottoms with low evaporation lid were prepared (each well contained 0.1 mL of MH broth) followed by the final two fold dilutions of antimicrobial agent dispensed volumetrically into the broth. […] Inoculation: each well of a microdilution plate was inoculated. The purity of the inoculum suspension was checked by sub-culturing an aliquot on to MH agar plate. Colony counts on inoculum suspensions were performed periodically, to ensure that the final inoculum concentration was approximately 5×10^6 CFU/mL. […] The in plate dilution method the endpoint is detected by the unaided eye.

[1] = Staphylococcus aureus, Monotherapy, S. Aureus, broth dilution, overnight incubation, read-out: MIC
[2] = Monotherapy, P. Auregenosa, broth dilution, overnight incubation, read-out: MIC
[3] = Escherichia coli, Monotherapy, E. coli, broth dilution, overnight incubation, read-out: MIC
[4] = Monotherapy, E. coli, broth dilution, overnight incubation
[5] = Monotherapy, P. Auregenosa, broth dilution, overnight incubation

CC1(C)S[C@@H]2[C@H](NC(=O)[C@H](N)c3ccc(O)cc3)C(=O)N2[C@H]1C(=O)O [Amoxicillin]
MIC (S. Aureus; [1]): 31.2 to 62.5 mg/L (≈ 85.5 to 171 µM)
MIC (P. Auregenosa; [2]): 250 to 500 mg/L (≈ 684 to 1370 µM)

C[C@H]1[C@H](NC(=O)/C(=N\OC(C)(C)C(=O)O)c2csc(N)n2)C(=O)N1S(=O)(=O)O [Aztreonam]
MIC (S. Aureus; [1]): 625 to 1250 mg/L (≈ 1440 to 2870 µM)
MIC (E. coli; [3]): 0.078 to 0.097 mg/L (≈ 0.179 to 0.223 µM)
MIC (P. Auregenosa; [2]): 15.6 to 19 mg/L (≈ 35.9 to 43.6 µM)

CC[C@H](C)[C@H](N)C1=N[C@H](C(=O)N[C@@H](CC(C)C)C(=O)N[C@H](CCC(=O)O)C(=O)N[C@H](C(=O)N[C@H]2CCCCNC(=O)[C@H](CC(N)=O)NC(=O)[C@@H](CC(=O)O)NC(=O)[C@H](Cc3cnc[nH]3)NC(=O)[C@@H](Cc3ccccc3)NC(=O)[C@H]([C@@H](C)CC)NC(=O)[C@@H](CCCN)NC2=O)[C@@H](C)CC)CS1 [Bacitracin] (HELM PEPTIDE1{[CC[C@H](C)[C@H](N)C1=N[C@H](C(=O)[*:2])CS1].L.[dE].I.K.[NCCC[C@@H](N[*:1])C(=O)[*:2]].I.[dF].H.[dD].N}$PEPTIDE1,PEPTIDE1,5:R3-11:R2$$$V2.0)
MIC (S. Aureus): 35 to 40 mg/L
MIC (E. coli): 1000 to 1250 mg/L
MIC (P. Auregenosa): 4000 to 5000 mg/L

[H]/N=C(\N/C(=N/[H])NCCCCCCNC(=N)NC(=N)Nc1ccc(Cl)cc1)Nc1ccc(Cl)cc1 [Chlorhexidine]
MIC (S. Aureus; [1]): 3.12 to 4 mg/L (≈ 6.18 to 7.91 µM)
MIC (E. coli; [3]): 3.13 to 4 mg/L (≈ 6.19 to 7.91 µM)
MIC (P. Auregenosa; [2]): 4 to 5 mg/L (≈ 7.91 to 9.89 µM)
MIC (C. Albicans): 3.12 to 4 mg/L (≈ 6.18 to 7.91 µM)

O=C(O)c1cn(C2CC2)c2cc(N3CCNCC3)c(F)cc2c1=O [Ciprofloxacin]
MIC (S. Aureus; [1]): 0.156 to 0.2 mg/L (≈ 0.471 to 0.604 µM)
MIC (E. coli; [3]): 0.005 to 0.0078 mg/L (≈ 0.0151 to 0.0235 µM)
MIC (P. Auregenosa; [2]): 0.156 to 0.25 mg/L (≈ 0.471 to 0.754 µM)
MIC (C. Albicans): > 2.5 mg/L

Clc1ccc(COC(Cn2ccnc2)c2ccc(Cl)cc2Cl)c(Cl)c1 (stereo not drawn) [Miconazole]
MIC (S. Aureus; [1]): 45 to 90 mg/L (≈ 108 to 216 µM)
MIC (C. Albicans): 1.4 to 2.8 mg/L (≈ 3.36 to 6.73 µM)

CN[C@H](CC(C)C)C(=O)N[C@H]1C(=O)N[C@@H](CC(N)=O)C(=O)N[C@H]2C(=O)N[C@H]3C(=O)N[C@H](C(=O)N[C@H](C(=O)O)c4cc(O)cc(O)c4-c4cc3ccc4O)[C@H](O)c3ccc(c(Cl)c3)Oc3cc2cc(c3O[C@@H]2O[C@H](CO)[C@@H](O)[C@H](O)[C@H]2O[C@H]2C[C@](C)(N)[C@H](O)[C@H](C)O2)Oc2ccc(cc2Cl)[C@H]1O [Vancomycin]
MIC (E. coli; Escherichia coli): 190 to 380 mg/L (≈ 131 to 262 µM)

Gentamicin
MIC (E. coli; [4]): 1.25 to 2.5 mg/L
MIC (P. Auregenosa; [5]): 0.625 to 1.25 mg/L

Polymixin B
MIC (S. Aureus; Monotherapy, S. Aureus, broth dilution, overnight incubation): 62.5 to 100.0 mg/L
MIC (E. coli; [4]): 7.8 to 10 mg/L
MIC (P. Auregenosa; [5]): 3.125 to 5.0 mg/L
